In ChEMBL document CHEMBL1201862, “PubChem BioAssay data set” (2004):
Calls of active or inactive are those of the source.

Columns and labels:
[1] = target: T1, Zinc finger protein mex-5 (Caenorhabditis elegans, UniProt Q9XUB2); assay: potency of MEX-5 RNA-binding blockers – biochemical, C. elegans, fluorescence polarization, dose response (AID 1960)
T1 sequence (Q9XUB2 whole entry): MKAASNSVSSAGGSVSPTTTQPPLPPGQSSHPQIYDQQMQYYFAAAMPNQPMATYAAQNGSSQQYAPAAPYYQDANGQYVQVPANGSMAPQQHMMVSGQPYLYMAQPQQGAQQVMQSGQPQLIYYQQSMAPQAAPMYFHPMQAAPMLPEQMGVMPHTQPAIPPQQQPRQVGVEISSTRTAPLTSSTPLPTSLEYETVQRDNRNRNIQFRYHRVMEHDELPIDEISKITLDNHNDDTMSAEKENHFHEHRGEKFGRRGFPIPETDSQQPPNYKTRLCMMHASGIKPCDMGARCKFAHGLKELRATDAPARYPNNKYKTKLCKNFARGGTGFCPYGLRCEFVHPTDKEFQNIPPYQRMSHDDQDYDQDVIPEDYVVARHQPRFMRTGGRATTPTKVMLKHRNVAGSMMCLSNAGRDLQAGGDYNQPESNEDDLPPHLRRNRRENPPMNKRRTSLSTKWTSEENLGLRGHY

[2] = test system: Streptococcus sp. 'group A'; assay: Streptococcus pyogenes SK(-)GAS viability under kanamycin – luminescence, BacTiterGlo, confirmation, counter-screen for streptokinase expression inhibitor project, dose response (AID 1900); format: functional, organism-based
[3] = target: T2, RNA-binding protein pos-1 (Caenorhabditis elegans, UniProt G5EF15); assay: disruptors of C. elegans POS-1 RNA interaction – biochemical, fluorescence polarization, dose response (AID 1964);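 note: purified POS-1 fused to maltose binding protein made in E. coli; potency of compounds blocking POS-1 binding to fluorescent RNA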
T2 sequence (G5EF15 whole entry): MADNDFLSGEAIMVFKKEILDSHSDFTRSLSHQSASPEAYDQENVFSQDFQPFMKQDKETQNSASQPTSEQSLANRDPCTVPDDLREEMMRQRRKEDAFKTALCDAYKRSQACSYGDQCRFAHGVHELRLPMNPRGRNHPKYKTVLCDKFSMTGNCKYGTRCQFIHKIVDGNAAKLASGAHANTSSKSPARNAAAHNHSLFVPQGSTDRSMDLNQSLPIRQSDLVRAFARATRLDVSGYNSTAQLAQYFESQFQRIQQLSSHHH

Streptococcus = assay: GAS UMAA2166 growth inhibition – luminescence, BacTiterGlo, counter-screen for streptokinase expression inhibitor project, dose response (AID 1915); format: functional, organism-based;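 note: potency for reduction of bacterial viability or growth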
[4] = target: T3, Carboxy-terminal domain RNA polymerase II polypeptide A small phosphatase 1 (Homo sapiens, UniProt Q9GZU7); assay: CTDSP1 inhibitors, concentration-response, biochemical, absorbance readout, ultra-high-throughput screen actives (AID 540297); format: functional
T3 sequence (Q9GZU7 whole entry): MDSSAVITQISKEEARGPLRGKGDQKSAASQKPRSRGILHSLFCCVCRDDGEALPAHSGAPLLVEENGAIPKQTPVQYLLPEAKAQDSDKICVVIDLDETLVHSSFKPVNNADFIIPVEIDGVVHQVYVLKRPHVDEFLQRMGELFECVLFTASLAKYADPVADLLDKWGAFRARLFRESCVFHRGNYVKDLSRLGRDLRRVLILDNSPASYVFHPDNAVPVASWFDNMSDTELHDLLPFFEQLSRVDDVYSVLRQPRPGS

Streptokinase A = target: T4, Streptokinase A (Streptococcus pyogenes serotype M1, UniProt P10520); assay: viability-normalized secreted streptokinase activity reduction – plasminogen activation absorbance, OD405, dose response (AID 1914); format: functional, Streptococcus pyogenes M1 GAS;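 note: secreted streptokinase activity via plasminogen activation per viability signal from cell pellet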
T4 sequence (P10520 whole entry): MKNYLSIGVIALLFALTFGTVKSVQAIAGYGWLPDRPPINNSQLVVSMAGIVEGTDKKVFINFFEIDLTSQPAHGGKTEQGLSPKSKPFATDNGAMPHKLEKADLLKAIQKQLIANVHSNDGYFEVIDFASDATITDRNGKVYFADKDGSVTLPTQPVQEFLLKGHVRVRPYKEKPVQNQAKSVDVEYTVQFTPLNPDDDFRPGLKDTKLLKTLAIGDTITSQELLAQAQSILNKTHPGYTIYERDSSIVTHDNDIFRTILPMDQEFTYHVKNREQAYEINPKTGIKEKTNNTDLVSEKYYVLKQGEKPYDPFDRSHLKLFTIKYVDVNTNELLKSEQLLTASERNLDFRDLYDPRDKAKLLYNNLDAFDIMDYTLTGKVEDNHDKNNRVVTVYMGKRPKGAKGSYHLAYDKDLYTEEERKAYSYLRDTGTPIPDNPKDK

[5] = target: FAD-linked sulfhydryl oxidase ALR (Homo sapiens, UniProt P55789); assay: ALR-catalysed DTT oxidation blockers – biochemical, H2O2 detection, luminescence, cherry-pick, dose response (AID 493248)
Sequence of FAD-linked sulfhydryl oxidase ALR (P55789 whole entry): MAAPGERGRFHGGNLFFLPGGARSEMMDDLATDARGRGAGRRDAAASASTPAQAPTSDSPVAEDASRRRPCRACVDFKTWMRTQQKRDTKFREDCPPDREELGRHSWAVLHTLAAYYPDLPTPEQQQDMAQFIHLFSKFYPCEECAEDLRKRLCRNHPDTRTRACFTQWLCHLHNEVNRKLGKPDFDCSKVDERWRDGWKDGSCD

[6] = target: T5, Histone-lysine N-methyltransferase NSD2 (Homo sapiens, UniProt O96028); format: biochemical
T5 sequence (O96028 whole entry): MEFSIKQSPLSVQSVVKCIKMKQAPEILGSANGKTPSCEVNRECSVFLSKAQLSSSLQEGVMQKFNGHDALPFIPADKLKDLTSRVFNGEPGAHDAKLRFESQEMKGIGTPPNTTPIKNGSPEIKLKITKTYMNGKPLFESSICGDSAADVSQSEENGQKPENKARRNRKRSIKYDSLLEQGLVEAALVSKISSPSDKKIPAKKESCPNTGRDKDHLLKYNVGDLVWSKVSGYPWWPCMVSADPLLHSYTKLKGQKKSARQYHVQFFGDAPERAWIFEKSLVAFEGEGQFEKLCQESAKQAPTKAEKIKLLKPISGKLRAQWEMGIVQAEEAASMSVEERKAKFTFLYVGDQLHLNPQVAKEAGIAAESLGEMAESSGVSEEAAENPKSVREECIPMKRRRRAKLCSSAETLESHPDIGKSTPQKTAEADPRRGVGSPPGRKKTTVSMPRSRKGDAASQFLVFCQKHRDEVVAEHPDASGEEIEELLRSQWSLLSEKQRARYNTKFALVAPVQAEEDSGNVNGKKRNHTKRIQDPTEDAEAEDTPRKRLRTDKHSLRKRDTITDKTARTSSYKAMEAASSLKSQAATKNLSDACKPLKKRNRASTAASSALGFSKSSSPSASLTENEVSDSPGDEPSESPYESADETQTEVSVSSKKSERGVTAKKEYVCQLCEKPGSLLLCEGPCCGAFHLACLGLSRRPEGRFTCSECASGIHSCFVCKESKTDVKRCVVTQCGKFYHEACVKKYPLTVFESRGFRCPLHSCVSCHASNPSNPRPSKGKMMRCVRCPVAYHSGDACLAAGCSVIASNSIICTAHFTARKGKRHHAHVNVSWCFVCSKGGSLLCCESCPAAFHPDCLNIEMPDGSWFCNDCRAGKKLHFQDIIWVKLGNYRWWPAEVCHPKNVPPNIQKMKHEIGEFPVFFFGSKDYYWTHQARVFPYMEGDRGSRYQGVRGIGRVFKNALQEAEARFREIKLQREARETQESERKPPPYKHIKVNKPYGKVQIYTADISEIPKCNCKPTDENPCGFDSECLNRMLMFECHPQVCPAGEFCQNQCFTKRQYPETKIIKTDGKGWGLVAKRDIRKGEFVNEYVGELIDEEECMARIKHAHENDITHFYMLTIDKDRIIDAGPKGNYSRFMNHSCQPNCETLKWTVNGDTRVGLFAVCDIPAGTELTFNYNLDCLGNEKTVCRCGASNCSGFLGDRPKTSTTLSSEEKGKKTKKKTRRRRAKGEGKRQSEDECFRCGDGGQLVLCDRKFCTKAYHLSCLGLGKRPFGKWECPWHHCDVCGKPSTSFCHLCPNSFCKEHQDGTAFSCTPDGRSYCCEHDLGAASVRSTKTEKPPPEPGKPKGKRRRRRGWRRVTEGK

HEK293 = assay: EBV LMP1 TES2 canonical NF-kB signalling blockers – cell-based, HEK293, luciferase, cherry-pick, dose response (AID 588343); format: functional; settings: Homo sapiens
[7] = reduction of Shn3 3'UTR-driven luciferase in osteoblasts – cell-based, Clone20 osteoblasts, firefly luciferase, cherry-picked, dose response (AID 624132); format: functional;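 note: firefly luciferase luminescence from reporter carrying the Shn3 3'UTR in osteoblasts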
Genome polyprotein = Genome polyprotein (dengue virus type 2, UniProt P29990); assay: flavivirus cap methylation enzyme inhibition – biochemical, confirmation dose response, primary screen (AID 588689); format: functional
Sequence of Genome polyprotein (P29990 2492-3391 limits assumed): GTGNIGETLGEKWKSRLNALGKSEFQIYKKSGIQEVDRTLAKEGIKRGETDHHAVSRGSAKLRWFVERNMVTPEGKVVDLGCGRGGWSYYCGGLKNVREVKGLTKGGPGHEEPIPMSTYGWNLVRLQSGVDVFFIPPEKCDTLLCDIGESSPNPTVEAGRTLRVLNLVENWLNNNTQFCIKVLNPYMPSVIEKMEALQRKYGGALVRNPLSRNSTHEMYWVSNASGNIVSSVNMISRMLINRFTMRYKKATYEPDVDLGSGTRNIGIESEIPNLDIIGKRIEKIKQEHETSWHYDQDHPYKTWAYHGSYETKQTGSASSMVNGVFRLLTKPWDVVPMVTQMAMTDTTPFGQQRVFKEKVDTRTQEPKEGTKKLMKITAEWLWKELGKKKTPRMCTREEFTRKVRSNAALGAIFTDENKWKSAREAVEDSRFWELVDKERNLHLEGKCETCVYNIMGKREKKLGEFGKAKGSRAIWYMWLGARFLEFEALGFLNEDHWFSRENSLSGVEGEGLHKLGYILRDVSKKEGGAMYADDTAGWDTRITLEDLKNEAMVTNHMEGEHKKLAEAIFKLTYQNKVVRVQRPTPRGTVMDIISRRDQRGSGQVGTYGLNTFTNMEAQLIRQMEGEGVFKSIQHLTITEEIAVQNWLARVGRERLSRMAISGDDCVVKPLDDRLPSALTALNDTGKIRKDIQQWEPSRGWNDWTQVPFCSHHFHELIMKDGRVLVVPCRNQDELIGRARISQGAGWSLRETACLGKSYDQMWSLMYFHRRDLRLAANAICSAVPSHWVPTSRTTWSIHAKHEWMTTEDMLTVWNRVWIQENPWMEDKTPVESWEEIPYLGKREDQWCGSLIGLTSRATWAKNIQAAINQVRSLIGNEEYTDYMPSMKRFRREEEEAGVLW

[8] = non-specific 3'UTR reporter inhibition in Clone20-Shn3RL – cell-based, Renilla luciferase, cherry-picked, counter-screen for Shn3 inhibitor project, dose response (AID 624133); format: functional
Vero = assay: viability of Vero cells under compound – cytotoxicity control for flavivirus capping enzyme inhibitors (AID 588742); format: functional; settings: Chlorocebus sabaeus
[9] = loss of viability in HepG2 cells – cell-based, CellTiter-Glo, cherry-picked, cytotoxicity control for Shn3 inhibitor project, dose response (AID 624134); format: functional
[10] = microbe, parasite or virus in culture; format: functional; settings: Mycobacterium tuberculosis
Large T antigen = Large T antigen (Simian virus 40, UniProt P03070); format: functional, Betapolyomavirus macacae;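 note: Confirmatory-stage PubChem screen for compounds that inhibit SV40 T antigen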
Sequence of Large T antigen (P03070 whole entry): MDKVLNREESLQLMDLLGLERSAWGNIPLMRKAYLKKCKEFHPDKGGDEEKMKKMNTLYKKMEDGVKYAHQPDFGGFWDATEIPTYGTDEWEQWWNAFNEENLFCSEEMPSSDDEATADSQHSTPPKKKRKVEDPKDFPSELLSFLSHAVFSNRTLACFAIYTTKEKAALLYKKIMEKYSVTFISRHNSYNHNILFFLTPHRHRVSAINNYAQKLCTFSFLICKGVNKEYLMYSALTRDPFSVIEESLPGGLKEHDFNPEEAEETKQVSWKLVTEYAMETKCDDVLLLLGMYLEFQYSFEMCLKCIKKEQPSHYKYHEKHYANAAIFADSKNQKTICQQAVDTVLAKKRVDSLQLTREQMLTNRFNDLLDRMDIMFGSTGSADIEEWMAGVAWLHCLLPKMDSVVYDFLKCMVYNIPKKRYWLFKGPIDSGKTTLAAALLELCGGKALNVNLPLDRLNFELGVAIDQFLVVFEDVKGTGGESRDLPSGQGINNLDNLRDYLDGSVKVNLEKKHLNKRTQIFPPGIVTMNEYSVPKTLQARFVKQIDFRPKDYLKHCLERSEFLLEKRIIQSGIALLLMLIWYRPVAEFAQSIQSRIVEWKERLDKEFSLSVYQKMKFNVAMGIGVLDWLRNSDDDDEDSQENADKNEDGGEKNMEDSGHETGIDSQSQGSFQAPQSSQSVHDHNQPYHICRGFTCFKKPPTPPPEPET

[11] = NIH3T3 cell viability loss – ATP luminescence, mouse fibroblasts, counter-screen, dose response (AID 2010); format: functional, cell-based;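 note: cells exposed to compound for about 90 hours before reading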
[12] = Trypanosoma cruzi growth suppression in host cells – NIH3T3 host cells, beta-gal luminescence, confirmation (AID 2044); format: functional, cell-based;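 note: intracellular parasites grown in NIH/3T3 mouse fibroblasts as host cells; luminescent beta-galactosidase reporter signal from transgenic T. cruzi replicating inside host cells; inhibitors lower the luminescence signal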
[13] = NIH-3T3 fibroblast cytotoxicity, dose response, cytotoxicity control, cell-based, fluorescence, Alamar Blue, secondary assay (AID 2327); format: functional;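 note: NIH-3T3 mouse fibroblasts cultured with fluconazole at 8 µg/mL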
[14] = fluconazole-exposed Candida albicans growth modulators – fluorescence, retest, confirmation (AID 2467); format: functional, cell-based

N#Cc1ccccc1CN1C(=O)S/C(=C/c2cccn2-c2ccc(C(=O)O)cc2)C1=O
EC50 [1]: 44 µM (active) | EC50 [2]: 15.8 µM (active) | EC50 [3]: > 300 µM (not active) | EC50 (Streptococcus): 61.7 µM (active) | IC50 [4]: 5.85 µM (active) | EC50 (Streptokinase A): > 150 µM (not active) | AC50 [5]: 86.3 µM (active)

CCN1CCCCC(=N/O)/C(=N/O)CCCC1
AC50 [6]: > 20 µM (inactive)

Cc1nc2sc(C(N)=O)c(N)c2c2c1CCCC2
AC50 (HEK293): 10.9 µM (active)

NC(=O)C1CCN(C2=C(NS(=O)(=O)c3ccc(Cl)cc3)C(=O)c3ccccc3C2=O)CC1
AC50 [6]: 14.1 µM (active)

CCOC(=O)c1c2c(n(-c3ccc(OC)cc3)c1C)C(=O)C(=O)c1ccccc1-2
AC50 [7]: 3.15 µM (active) | IC50 (Genome polyprotein): 47 µM (active) | AC50 [8]: 3 µM (active) | CC50 (Vero): 2.89 µM (active) | AC50 [9]: 3.74 µM (active)

Cc1ccc(NC(=O)C2CCN(S(=O)(=O)c3ccc4c(c3)NC(=O)C(C)S4)CC2)c(Cl)c1 (stereo not drawn)
CC50 [10]: > 40 µM (active)

O=C(/C=C/c1ccco1)NCC(=O)N/N=C/c1ccc([N+](=O)[O-])cc1
IC50 [4]: 5.25 µM (active)

C(=N\c1ccc(Nc2ccccc2)cc1)/c1ccc2ccccc2c1
IC50 (Large T antigen): 8.25 µM (active)

CCC[n+]1c2ccccc2cc2ccccc21
EC50 [11]: > 60 µM (not active) | EC50 [12]: 0.157 µM (active) | IC50 (Large T antigen): 46.2 µM (active) | EC50 [13]: > 160 µM (inactive) | EC50 [14]: 0.672 µM (active)
